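Cultured in 96-well plates, cells were exposed to test compound for 48 hours across five concentrations. TGI is the concentration that stops growth completely.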
Experiments:
Assay in all cases: NCI anticancer screen, dose series, 48 h
786-0 renal = system: 786-0 renal
A498 renal = system: A498 renal
A549 NSCLC = system: A549 NSCLC
ACHN renal = system: ACHN renal
BT-549 breast = system: BT-549 breast
CAKI-1 renal = system: CAKI-1 renal
CCRF-CEM leukemia = system: CCRF-CEM leukemia
COLO 205 colon = system: COLO 205 colon
EKVX NSCLC = system: EKVX NSCLC
HCC-2998 colon = system: HCC-2998 colon
HCT-116 colon = system: HCT-116 colon
HCT-15 colon = system: HCT-15 colon
HL-60(TB) leukemia = system: HL-60(TB) leukemia
HOP-62 NSCLC = system: HOP-62 NSCLC
HOP-92 NSCLC = system: HOP-92 NSCLC
HS 578T breast = system: HS 578T breast
HT29 colon = system: HT29 colon
IGROV1 ovarian = system: IGROV1 ovarian
K-562 leukemia = system: K-562 leukemia
KM12 colon = system: KM12 colon
LOX IMVI melanoma = system: LOX IMVI melanoma
M14 melanoma = system: M14 melanoma
MALME-3M melanoma = system: MALME-3M melanoma
MCF7 breast = system: MCF7 breast
MDA-MB-231 breast = system: MDA-MB-231 breast
MDA-MB-435 = system: MDA-MB-435
MDA-N = system: MDA-N
MOLT-4 leukemia = system: MOLT-4 leukemia
NCI-H226 lung = system: NCI-H226 lung
NCI-H23 lung = system: NCI-H23 lung
NCI-H460 lung = system: NCI-H460 lung
NCI-H522 lung = system: NCI-H522 lung
NCI/ADR-RES ovarian = system: NCI/ADR-RES ovarian
OVCAR-3 ovarian = system: OVCAR-3 ovarian
OVCAR-4 ovarian = system: OVCAR-4 ovarian
OVCAR-5 ovarian = system: OVCAR-5 ovarian
OVCAR-8 ovarian = system: OVCAR-8 ovarian
PC-3 prostate = system: PC-3 prostate
RPMI-8226 leukemia = system: RPMI-8226 leukemia
RXF 393 renal = system: RXF 393 renal
SF-268 CNS = system: SF-268 CNS
SF-295 CNS = system: SF-295 CNS
SF-539 CNS = system: SF-539 CNS
SK-MEL-2 melanoma = system: SK-MEL-2 melanoma
SK-MEL-28 melanoma = system: SK-MEL-28 melanoma
SK-MEL-5 melanoma = system: SK-MEL-5 melanoma
SK-OV-3 ovarian = system: SK-OV-3 ovarian
SN12C renal = system: SN12C renal
SNB-19 CNS = system: SNB-19 CNS
SNB-75 CNS = system: SNB-75 CNS
SW-620 colon = system: SW-620 colon
T-47D breast = system: T-47D breast
TK-10 renal = system: TK-10 renal
U251 CNS = system: U251 CNS
UACC-257 melanoma = system: UACC-257 melanoma
UACC-62 melanoma = system: UACC-62 melanoma
UO-31 renal = system: UO-31 renal
DU-145 prostate = system: DU-145 prostate
SR leukemia = system: SR leukemia

Measured: TGI

CCCCCCCCCCCCOP(=O)(O)OP(=O)(O)OCC1OC(n2ccc(N)nc2=O)CC1O (stereo unspecified)
> 100 µM: 786-0 renal | A498 renal | A549 NSCLC | ACHN renal | BT-549 breast | CAKI-1 renal | CCRF-CEM leukemia | COLO 205 colon | EKVX NSCLC | HCC-2998 colon | HCT-116 colon | HCT-15 colon | HL-60(TB) leukemia | HOP-62 NSCLC | HOP-92 NSCLC | HS 578T breast | HT29 colon | IGROV1 ovarian | K-562 leukemia | KM12 colon | LOX IMVI melanoma | M14 melanoma | MALME-3M melanoma | MCF7 breast | MDA-MB-231 breast | MDA-MB-435 | MDA-N | MOLT-4 leukemia | NCI-H226 lung | NCI-H23 lung | NCI-H460 lung | NCI-H522 lung | NCI/ADR-RES ovarian | OVCAR-3 ovarian | OVCAR-4 ovarian | OVCAR-5 ovarian | OVCAR-8 ovarian | PC-3 prostate | RPMI-8226 leukemia | RXF 393 renal | SF-268 CNS | SF-295 CNS | SF-539 CNS | SK-MEL-2 melanoma | SK-MEL-28 melanoma | SK-MEL-5 melanoma | SK-OV-3 ovarian | SN12C renal | SNB-19 CNS | SNB-75 CNS | SW-620 colon | T-47D breast | TK-10 renal | U251 CNS | UACC-257 melanoma | UACC-62 melanoma | UO-31 renal

CC12C3C4C1C1C2C3C41CO (stereo unspecified)
> 100 µM: 786-0 renal | A498 renal | A549 NSCLC | ACHN renal | CAKI-1 renal | CCRF-CEM leukemia | COLO 205 colon | DU-145 prostate | EKVX NSCLC | HCT-116 colon | HCT-15 colon | HL-60(TB) leukemia | HOP-92 NSCLC | HT29 colon | IGROV1 ovarian | K-562 leukemia | KM12 colon | LOX IMVI melanoma | M14 melanoma | MCF7 breast | MDA-MB-231 breast | MDA-MB-435 | MDA-N | MOLT-4 leukemia | NCI-H226 lung | NCI-H460 lung | NCI/ADR-RES ovarian | OVCAR-3 ovarian | OVCAR-4 ovarian | OVCAR-5 ovarian | OVCAR-8 ovarian | RXF 393 renal | SF-295 CNS | SF-539 CNS | SK-MEL-2 melanoma | SK-MEL-28 melanoma | SK-MEL-5 melanoma | SK-OV-3 ovarian | SN12C renal | SNB-19 CNS | SNB-75 CNS | SR leukemia | SW-620 colon | TK-10 renal | U251 CNS | UACC-257 melanoma | UACC-62 melanoma | UO-31 renal

CSC1NC(c2ccccc2)=C(C#N)C(=O)N1C1OCC(OC(C)=O)C(OC(C)=O)C1OC(C)=O (stereo unspecified)
> 100 µM: 786-0 renal | A498 renal | A549 NSCLC | ACHN renal | BT-549 breast | CAKI-1 renal | COLO 205 colon | DU-145 prostate | EKVX NSCLC | HCC-2998 colon | HCT-116 colon | HCT-15 colon | HOP-62 NSCLC | HOP-92 NSCLC | HS 578T breast | HT29 colon | IGROV1 ovarian | K-562 leukemia | KM12 colon | LOX IMVI melanoma | M14 melanoma | MALME-3M melanoma | MCF7 breast | MDA-MB-231 breast | MDA-MB-435 | MDA-N | MOLT-4 leukemia | NCI-H226 lung | NCI-H23 lung | NCI-H460 lung | NCI-H522 lung | NCI/ADR-RES ovarian | OVCAR-3 ovarian | OVCAR-4 ovarian | OVCAR-5 ovarian | OVCAR-8 ovarian | PC-3 prostate | RPMI-8226 leukemia | RXF 393 renal | SF-268 CNS | SF-295 CNS | SF-539 CNS | SK-MEL-28 melanoma | SK-MEL-5 melanoma | SK-OV-3 ovarian | SN12C renal | SNB-19 CNS | SNB-75 CNS | SR leukemia | SW-620 colon | TK-10 renal | U251 CNS | UACC-257 melanoma | UACC-62 melanoma | UO-31 renal

CC(=O)Oc1cc(S(=O)(=O)Nc2n[nH]c(Nc3ccc(C)cc3)n2)c(S)cc1Cl
> 100 µM: 786-0 renal | A498 renal | A549 NSCLC | ACHN renal | BT-549 breast | CAKI-1 renal | CCRF-CEM leukemia | COLO 205 colon | DU-145 prostate | EKVX NSCLC | HCT-116 colon | HCT-15 colon | HL-60(TB) leukemia | HOP-92 NSCLC | HS 578T breast | HT29 colon | IGROV1 ovarian | K-562 leukemia | KM12 colon | LOX IMVI melanoma | M14 melanoma | MALME-3M melanoma | MDA-MB-231 breast | MDA-MB-435 | MDA-N | MOLT-4 leukemia | NCI-H23 lung | NCI-H460 lung | NCI-H522 lung | NCI/ADR-RES ovarian | OVCAR-3 ovarian | OVCAR-4 ovarian | OVCAR-5 ovarian | OVCAR-8 ovarian | PC-3 prostate | RPMI-8226 leukemia | SF-295 CNS | SF-539 CNS | SK-MEL-2 melanoma | SK-MEL-28 melanoma | SK-MEL-5 melanoma | SN12C renal | SNB-19 CNS | SR leukemia | SW-620 colon | T-47D breast | TK-10 renal | U251 CNS | UACC-257 melanoma | UACC-62 melanoma | UO-31 renal

Source: PubChem BioAssay (NCI)
